Measurements published in ChEMBL document CHEMBL1145925, “Carbonic anhydrase inhibitors: inhibition of transmembrane, tumor-associated isozyme IX, and cytosolic isozymes I and II with aliphatic sulfamates” (J Med Chem, 2003).
“And” between values parts separate entries of the source, which are not always exact repeats. Equal values may be shown once.

Legend:
Carbonic anhydrase 2 = Carbonic anhydrase 2 (Homo sapiens, UniProt P00918)
Carbonic anhydrase 1 = Carbonic anhydrase 1 (Homo sapiens, UniProt P00915)
Carbonic anhydrase 1, sequence (P00915 whole entry): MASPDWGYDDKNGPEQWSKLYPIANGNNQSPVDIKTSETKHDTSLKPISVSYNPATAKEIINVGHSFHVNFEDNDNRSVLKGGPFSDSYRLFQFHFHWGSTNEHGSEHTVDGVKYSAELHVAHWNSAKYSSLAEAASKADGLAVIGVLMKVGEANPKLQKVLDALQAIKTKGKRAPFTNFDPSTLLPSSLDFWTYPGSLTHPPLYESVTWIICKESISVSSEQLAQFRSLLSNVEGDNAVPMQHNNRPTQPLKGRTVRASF

Carbonic anhydrase 9 = Carbonic anhydrase 9 (Homo sapiens, UniProt Q16790)

| Structure (SMILES) | Ki (Carbonic anhydrase 2) [µM] | Ki (Carbonic anhydrase 1) [µM] | Ki (Carbonic anhydrase 9) |
| --- | --- | --- | --- |
| NS(=O)(=O)OCC1c2ccccc2-c2ccccc21 | 4.5 | 38 | > 1 µM |
| C#CCCOS(N)(=O)=O | 5.9 | 990 | 0.633 µM |
| CCCCCCCCCCCCCCOS(N)(=O)=O [SULFAMIC ACID TETRADECYL ESTER] | 0.087 | 0.15 | 0.015 µM |
| CCCCCCCCCCCCCCCCCCOS(N)(=O)=O [SULFAMIC ACID OCTADECYL ESTER] | 0.129 | 65 | 0.12 µM |
| C=CCCOS(N)(=O)=O | 0.883 | 800 | 0.386 µM |
| NS(=O)(=O)OC1CCCC1 [SULFAMIC ACID CYCLOPENTYL ESTER] | > 10 | > 1000 | > 1 µM |
| C[C@]12CCC(OS(N)(=O)=O)CC1=CC(=O)C1C2CC[C@]2(C)C(=O)CCC12 (stereo partly specified) | 0.023 | 0.41 | 0.076 µM |
| CCCCCCCCCCCOS(N)(=O)=O [SULFAMIC ACID UNDECYL ESTER] | 0.0047 | 0.43 | 0.017 µM |
| NS(=O)(=O)OCCCCl | 0.57 | 4.62 | > 1 µM |
| COS(N)(=O)=O [SULFAMIC ACID METHYL ESTER] | 6 | 40 | > 1 µM |
| CCOS(N)(=O)=O [SULFAMIC ACID ETHYL ESTER] | 5.5 | 38 | > 1 µM |
| CC(C)CCC[C@@H](C)[C@H]1CCC2C3CC=C4C[C@@H](OS(N)(=O)=O)CC[C@]4(C)C3CCC21 (stereo partly specified) | > 10 | > 1000 | > 1 µM |
| NS(=O)(=O)OCc1ccccc1 [SULFAMIC ACID BENZYL ESTER] | 0.0034 | 0.76 | 0.014 µM |
| CCCCCCCCCCOS(N)(=O)=O [DECYL SULFAMATE] |  |  | 0.023 µM and 0.142 µM |
| CCCCOS(N)(=O)=O [SULFAMIC ACID BUTYL ESTER] | 0.07 | 3.1 | > 1 µM |
| NS(=O)(=O)OC(C(F)(F)F)C(F)(F)F | 1.58 | 3.54 | 0.279 µM |
| Cc1ccc(COS(N)(=O)=O)cc1 | 0.0027 | 0.1 | 0.013 µM |
| NS(=O)(=O)OCCc1ccccc1 [SULFAMIC ACID PHENETHYL ESTER] | 0.0011 | 0.41 | 0.012 µM |
| CCCCCOS(N)(=O)=O [SULFAMIC ACID PENTYL ESTER] | 0.058 | 0.71 |  |
| C[C@]12CCC(OS(N)(=O)=O)CC1=C[C@@H](O)C1C2CC[C@]2(C)C(=O)CCC12 (stereo partly specified) | 0.013 | 0.4 | 0.065 µM |
| NS(=O)(=O)OCC(F)(F)F | 0.845 | 7.8 | 0.458 µM |
| CC(C)OS(N)(=O)=O [SULFAMIC ACID ISOPROPYL ESTER] | > 10 | 690 | > 1 µM |
| CCCCCCCCCCCCOS(N)(=O)=O [SULFAMIC ACID DODECYL ESTER] | 0.01 | 0.27 | 0.009 µM |
| NS(=O)(=O)OC1CCCCC1 [SULFAMIC ACID CYCLOHEXYL ESTER] | 0.06 | 59 | > 1 µM |
| CCCOS(N)(=O)=O [SULFAMIC ACID PROPYL ESTER] | 0.75 | 3.7 | > 1 µM |
| CCCCCCCCCCCCCCCCOS(N)(=O)=O [SULFAMIC ACID HEXADECYL ESTER] | 0.097 | 58 |  |
| NS(=O)(=O)OCc1ccc(-c2ccccc2)cc1 |  | > 1000 | > 1 µM |
